Measurements taken from ChEMBL document CHEMBL1201862, “PubChem BioAssay data set” (2004).
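Results reflect a 48-hour exposure of cells in 96-well plates to compound at five concentrations. At the GI50, growth is halved.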 Active and inactive are the calls of the source. Rule as the data show it: active = GI50 up to about 1.1 µM and inactive = higher.

What was measured:
Test in all cases: inhibition of tumour cell growth, NCI panel, 48 h
CAKI-1 = system: CAKI-1
CCRF-CEM = system: CCRF-CEM
EKVX = system: EKVX
HCT-116 = system: HCT-116
HL-60 = system: HL-60
HOP-92 = system: HOP-92
K562 = system: K562
M14 = system: M14
Malme-3M = system: Malme-3M
NCI-H226 = system: NCI-H226
OVCAR-4 = system: OVCAR-4
SF-539 = system: SF-539
SK-MEL-2 = system: SK-MEL-2
SK-OV-3 = system: SK-OV-3
SN12C = system: SN12C
SNB-19 = system: SNB-19
SW-620 = system: SW-620
U-251 = system: U-251
UO-31 = system: UO-31

Measured: GI50

C1OC1C1CO1 (stereo unspecified)
inactive: CAKI-1 > 100 µM | CCRF-CEM 3.34 µM | EKVX > 100 µM | HCT-116 95.1 µM | HL-60 3.14 µM | HOP-92 > 100 µM | K562 80.2 µM | M14 > 100 µM | Malme-3M > 100 µM | NCI-H226 > 100 µM | OVCAR-4 > 100 µM | SF-539 59.8 µM | SK-MEL-2 > 100 µM | SK-OV-3 57.8 µM | SN12C 93.1 µM | SNB-19 > 100 µM | SW-620 86.3 µM | U-251 20.1 µM | UO-31 > 100 µM

Cc1ccc(C)c(NC(=O)CC2C(=O)Nc3ccccc3S2(=O)=O)c1 (stereo unspecified)
inactive: CAKI-1 31.8 µM | CCRF-CEM > 100 µM | EKVX 31.2 µM | HCT-116 52.2 µM | HL-60 49.9 µM | HOP-92 38.8 µM | K562 53.1 µM | M14 44.5 µM | Malme-3M 31.5 µM | NCI-H226 36.8 µM | OVCAR-4 19 µM | SF-539 25.5 µM | SK-MEL-2 > 100 µM | SN12C > 100 µM | SNB-19 75 µM | SW-620 36.6 µM | U-251 43.3 µM | UO-31 49.7 µM

CNCc1cc(OC)ccc1-c1ccc(OC)c(OC)c1OC
inactive: CAKI-1 > 100 µM | CCRF-CEM > 92.9 µM | EKVX > 74.8 µM | HCT-116 > 94.6 µM | HL-60 48.1 µM | HOP-92 > 70.6 µM | K562 51.9 µM | M14 > 100 µM | Malme-3M > 100 µM | NCI-H226 > 100 µM | OVCAR-4 > 80.9 µM | SF-539 > 100 µM | SK-MEL-2 > 100 µM | SK-OV-3 > 100 µM | SN12C > 100 µM | SNB-19 > 100 µM | SW-620 > 96.4 µM | U-251 > 100 µM | UO-31 > 88.1 µM

CC#CC#C/C=C1\C=CC2(OC=CC2O)O1 (stereo unspecified)
inactive: CAKI-1 14.8 µM | CCRF-CEM > 11.3 µM | EKVX > 9.86 µM | HCT-116 8.04 µM | HL-60 > 14.1 µM | HOP-92 7.13 µM | K562 11.6 µM | M14 > 17.8 µM | Malme-3M 10.4 µM | NCI-H226 > 15.8 µM | OVCAR-4 8.26 µM | SF-539 > 14.9 µM | SK-MEL-2 > 17.8 µM | SK-OV-3 > 23.3 µM | SN12C > 23.3 µM | SNB-19 > 23.3 µM | SW-620 8.28 µM | U-251 > 20.7 µM | UO-31 12.2 µM

O=c1[nH]c(Br)nc2c(Br)c[nH]c12
inactive: CAKI-1 > 100 µM | CCRF-CEM > 100 µM | EKVX > 100 µM | HCT-116 > 100 µM | HL-60 > 100 µM | HOP-92 > 100 µM | K562 > 100 µM | M14 > 100 µM | Malme-3M > 100 µM | NCI-H226 > 100 µM | OVCAR-4 > 100 µM | SF-539 > 100 µM | SK-MEL-2 > 100 µM | SK-OV-3 > 100 µM | SN12C > 100 µM | SNB-19 > 100 µM | SW-620 > 100 µM | U-251 > 100 µM | UO-31 > 100 µM

N[C@H](COCc1ccccc1)c1ccccc1
inactive: CAKI-1 23.7 µM | CCRF-CEM 23.8 µM | EKVX 33 µM | HCT-116 22.5 µM | HL-60 11.9 µM | HOP-92 23.1 µM | K562 28 µM | M14 23.1 µM | Malme-3M 33.4 µM | NCI-H226 27.7 µM | OVCAR-4 20.7 µM | SF-539 27.9 µM | SK-MEL-2 21.1 µM | SK-OV-3 29.6 µM | SN12C 27.7 µM | SNB-19 30.6 µM | SW-620 28.2 µM | U-251 > 56 µM | UO-31 30.3 µM

Cc1cc2c3ccccc3n3c2c2c1OC1(C)CCC(C2C1)C3(C)C (stereo unspecified)
inactive: CCRF-CEM > 25 µM | HCT-116 > 25 µM | HL-60 > 25 µM | HOP-92 > 25 µM | K562 > 25 µM | M14 > 25 µM | Malme-3M > 25 µM | NCI-H226 > 25 µM | OVCAR-4 > 25 µM | SF-539 > 25 µM | SK-MEL-2 > 25 µM | SK-OV-3 > 25 µM | SN12C > 25 µM | SNB-19 > 25 µM | SW-620 > 25 µM | U-251 > 25 µM | UO-31 > 25 µM

C(=C1/CCCCC([n+]2ccccc2)=N1)/c1ccccc1
inactive: CAKI-1 > 100 µM | CCRF-CEM > 100 µM | EKVX > 100 µM | HCT-116 > 100 µM | HL-60 > 100 µM | HOP-92 > 100 µM | K562 > 100 µM | M14 > 100 µM | Malme-3M > 100 µM | NCI-H226 > 100 µM | OVCAR-4 > 100 µM | SF-539 > 100 µM | SK-MEL-2 > 100 µM | SK-OV-3 > 100 µM | SN12C > 100 µM | SW-620 > 100 µM | U-251 > 100 µM | UO-31 > 100 µM

O=C1OC(c2ccccc2)=N/C1=C/NC(CO)C(=O)O (stereo unspecified)
inactive: CAKI-1 > 100 µM | CCRF-CEM > 100 µM | EKVX > 100 µM | HCT-116 > 100 µM | HL-60 > 100 µM | HOP-92 > 100 µM | K562 > 100 µM | M14 > 100 µM | Malme-3M > 100 µM | NCI-H226 > 100 µM | OVCAR-4 > 100 µM | SF-539 > 100 µM | SK-MEL-2 > 100 µM | SK-OV-3 > 100 µM | SNB-19 48.9 µM | SW-620 > 100 µM | U-251 > 100 µM | UO-31 > 100 µM

Cc1cccc(C)c1NC(=O)C(=O)C(C#N)c1ccccc1Cl (stereo unspecified)
inactive: CAKI-1 > 100 µM | CCRF-CEM > 100 µM | EKVX > 100 µM | HCT-116 > 100 µM | HL-60 80.2 µM | HOP-92 > 100 µM | K562 > 100 µM | M14 > 100 µM | Malme-3M > 100 µM | NCI-H226 > 100 µM | OVCAR-4 > 100 µM | SF-539 > 100 µM | SK-MEL-2 > 100 µM | SK-OV-3 > 100 µM | SN12C > 100 µM | SNB-19 > 100 µM | SW-620 > 100 µM | U-251 > 100 µM | UO-31 > 100 µM

O=C1OC(=O)C2C1C1(c3ccccc3)OC2(c2ccccc2)c2c(Br)c(Br)c(Br)c(Br)c21 (stereo unspecified)
inactive: CAKI-1 > 100 µM | CCRF-CEM > 100 µM | EKVX > 100 µM | HCT-116 > 100 µM | HL-60 > 100 µM | HOP-92 > 100 µM | K562 > 100 µM | M14 > 100 µM | Malme-3M > 100 µM | NCI-H226 > 100 µM | OVCAR-4 > 100 µM | SF-539 > 100 µM | SK-MEL-2 > 100 µM | SK-OV-3 28.7 µM | SN12C > 100 µM | SNB-19 > 100 µM | SW-620 > 100 µM | U-251 > 100 µM | UO-31 > 100 µM

Clc1ccc2c(Cl)ncnc2c1
inactive: CAKI-1 > 100 µM | CCRF-CEM > 100 µM | EKVX 63.4 µM | HCT-116 > 100 µM | HL-60 > 100 µM | HOP-92 85.7 µM | K562 > 100 µM | M14 > 100 µM | Malme-3M > 100 µM | NCI-H226 32.7 µM | OVCAR-4 > 100 µM | SF-539 > 100 µM | SK-MEL-2 > 100 µM | SK-OV-3 > 100 µM | SN12C > 100 µM | SNB-19 > 100 µM | SW-620 > 100 µM | U-251 > 100 µM | UO-31 > 100 µM

CCc1cccc(C(C)C)c1NC(=O)C(=O)C(Cc1nc2ccccc2nc1O)C(=O)OC (stereo unspecified)
inactive: CAKI-1 > 100 µM | CCRF-CEM 60.8 µM | EKVX 5.19 µM | HCT-116 40.7 µM | HL-60 > 100 µM | HOP-92 > 100 µM | K562 > 100 µM | M14 > 100 µM | Malme-3M > 100 µM | NCI-H226 > 100 µM | OVCAR-4 > 100 µM | SF-539 > 100 µM | SK-MEL-2 > 100 µM | SK-OV-3 > 100 µM | SN12C > 100 µM | SNB-19 > 100 µM | U-251 > 100 µM | UO-31 > 100 µM

O=C1c2ccccc2C(=O)c2c(O)c(NCCNCCO)cc(O)c21
inactive: CAKI-1 2.08 µM | CCRF-CEM 3.05 µM | EKVX 2.47 µM | HCT-116 2.3 µM | HL-60 4.69 µM | HOP-92 11.1 µM | K562 2.75 µM | M14 4.42 µM | Malme-3M 12.1 µM | NCI-H226 3.83 µM | OVCAR-4 2.99 µM | SF-539 4.93 µM | SK-MEL-2 5.07 µM | SN12C 3.99 µM | SNB-19 1.75 µM | SW-620 2.79 µM | UO-31 2.96 µM

COc1ccc2c(=O)cc(-c3ccc(OC)c(OC)c3OC)oc2c1
inactive: CAKI-1 > 82.4 µM | CCRF-CEM > 31.6 µM | EKVX > 64.3 µM | HCT-116 > 100 µM | HL-60 30.1 µM | HOP-92 33.1 µM | K562 37.1 µM | M14 > 100 µM | Malme-3M 40.4 µM | NCI-H226 > 65.9 µM | OVCAR-4 > 93.3 µM | SF-539 > 57.3 µM | SK-OV-3 > 89.1 µM | SN12C 61.4 µM | SNB-19 > 60.4 µM | SW-620 > 100 µM | U-251 > 100 µM | UO-31 > 100 µM
